{
  "source": "patent US8883798B2",
  "about": "“Pyrimidine compounds inhibiting the formation of nitric oxide and prostaglandin E2, method of production thereof and use thereof” (Ustav Organicke Chemie a Biochemie Akademie Ved CR, V.V.I., priority 2011, dated 2014)",
  "key": {"[1]": {"system": "production of nitric oxide (NO)", "assay": "Production of nitric oxide (NO) in cultures of mouse peritoneal cells stimulated with IFN-γ plus LPS (Griess reagent)", "assay_type": "cell-based, mice", "settings": "Table 3A; substance 50 μmol·l^−1; IFN-g plus LPS; 24 h", "outline": "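C57BL/6 mouse peritoneal cells (2×10^6/mL) stimulated with IFN-γ (5000 pg/mL) plus LPS (100 pg/mL), compounds at 50 μmol·l^−1. Nitrite measured by Griess reagent after 24 h, expressed as % of stimulated control (set 100%); IC50 is concentration reducing NO by 50%.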"}, "peritoneal cells of mice": {"system": "peritoneal cells of mice", "assay": "Cell viability of mouse peritoneal cells (WST-1 kit)", "assay_type": "cell-based", "settings": "Table 3A, substance 50 μmol·l^−1, 24 h", "outline": "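C57BL/6 mouse peritoneal cells (1×10^6/mL) cultured 24 h with compounds at 50 μmol·l^−1. Viability read with WST-1 tetrazolium salt and expressed as percent of untreated control cells (100%).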"}, "[2]": {"system": "human umbilical vein endothelial cells (HUVEC)", "assay": "Tube formation assay of HUVEC on Matrigel (in vitro angiogenesis)", "assay_type": "cell-based", "settings": "8 h", "text": "This so called “Tube Formation Assay” is a method based on the ability of endothelial cells to form capillary-like tubular structures when cultured on Matrigel™ (a gel of basement membrane extract—their natural substrate). The process of capillary-like tube formation includes endothelial cell attachment, migration, and differentiation into tubules. In this experiment, treatment with tested compounds started at the time of seeding HUVEC onto Matrigel and the extent of tubule development was observed after an 8 h time period. Disruption of tube formation was then assessed through observation of the tubular network and direct comparison to solvent-only controls. The quantitative and qualitative measurement of tubular network complexity was performed using web-based S.CORE imaging software and expressed by means of number of tubes, their total length, quality, number of branching points, etc. All these parameters were integrated into “tube formation index” which corresponds to the degree of complexity of tubular network. […] At a 10 μmol/L concentration, compound 23 reduced tube formation by >90%. […] Apoptosis in HUVECs (at ˜70% confluency) treated with or without varying concentrations (relevant for the tube formation assay) of tested substances was assessed by a combination of Annexin V and JC-1 staining. After 8 h of these treatments, cells were collected, and the cell population undergoing apoptosis was identified by double-parameter flow cytometry using annexin V and the vital dye propidium iodide (PI). Mitochondrial membrane potential in treated endothelial cells was measured using the lypophilic probe JC-1, which aggregates in healthy mitochondria and fluoresces red, but diffuses in the cytoplasm and fluoresces green upon mitochondrial damage. In both cases, quantification of apoptotic cells were conducted in BD FACSDiva software."}, "HUVEC": {"system": "HUVEC", "assay": "HUVEC cell proliferation (XTT assay)", "assay_type": "cell-based, human", "settings": "10 to 50 μmol/L, 8 hours"}, "[3]": {"system": "production of prostaglandin E2 (PGE2)", "assay": "Production of prostaglandin E2 (PGE2) in cultures of mouse peritoneal cells stimulated with LPS (ELISA kit)", "assay_type": "cell-based, mice", "settings": "Table 3A, substance 50 μmol·l^−1, 6 h", "outline": "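C57BL/6 mouse peritoneal cells (3×10^6/mL) stimulated with LPS (10 ng/mL). PGE2 measured by ELISA.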"}, "[4]": {"system": "Salmonella typhimurium TA 98 and TA 100, Escherichia coli WP2 uvrA", "procedure": "With compound 28, its possible mutagenicity (genotoxicity) was assessed using the standard bacterial reverse mutation test. According to Council Regulation (ES) No. 440/2008, stipulating the test methods according to the European Parliament and Council regulation (ES), the method used was B.13/14, Mutagenicity—Reverse Mutation Test Using Bacteria, which is described in the same way also in the OECD Test Guideline No. 471.\n[…] The experiments were conducted without using metabolic activation and after activation with supernatant S9 from […] livers and with mixtures of cofactors (NADP and glucoso-6-phosphate) to determine the mutagenicity of the metabolic products of the compound tested. Supernatant S9 was prepared according to the literature [Mutat. Res. 113, 173-215, 1983].\nThe principle of the test is to detect possible revertants created by reverse mutation, which would be induced in the bacterial culture by the tested compound. Specially constructed bacterial strains are used, carrying mutations in the place for his (trp), which are not capable of forming colonies on the minimum plates without histidine or tryptophan. […] Mutagenic potential is given by the growing number of revertants in the influenced groups in comparison with a negative control, and/or in dependence on the growing number of revertants on the dose of the tested compound.\nBacterial testers, types Salmonella typhimurium TA 98 (CCM 3811) and Escherichia coli WP2 uvrA (CCM 4751), were acquired from the Czech Collection of Microorganisms of Masaryk University, Brno and the strain Salmonella typhimurium TA100 (CIP 103796, lot No. 1008) from the Biological Resource Center, Institut Pasteur in Paris (CRBIP)."}},
  "data": [
    {"compound": "CCCCc1c(Cl)nc(N=CN(C)C)nc1Cl", "note": "[Substance 19]", "values": [
      {"measurement": "Production of nitric oxide in % of the controls", "setting": "[1]", "result": "2.99 ± 0.53 % of the controls"},
      {"measurement": "Cell viability in % of the controls", "setting": "peritoneal cells of mice", "result": "123.21 ± 21.43 % of the controls"},
      {"measurement": "Effect on tube formation", "setting": "[2]; 10 μmol/L", "result": "no inhibitory activity was detectable"},
      {"measurement": "Effect on tube formation", "setting": "[2]; 25 μmol/L", "result": "Partial differentiation"},
      {"measurement": "Capillary tube formation", "setting": "[2]", "result": "inhibited capillary tube formation in a dose dependent manner"},
      {"measurement": "HUVEC cell proliferation", "setting": "HUVEC", "result": "did not influence HUVEC cell proliferation"},
      {"measurement": "Production of prostaglandins in % of the controls", "setting": "[3]", "result": "14.93 ± 3.11 % of the controls"}
    ]},
    {"compound": "CN(C)C=Nc1nc(Cl)c(Cc2ccccc2)c(Cl)n1", "note": "[Substance 23]", "values": [
      {"measurement": "Production of nitric oxide in % of the controls", "setting": "[1]", "result": "4.41 ± 0.59 % of the controls"},
      {"measurement": "Cell viability in % of the controls", "setting": "peritoneal cells of mice", "result": "96.24 ± 11.9 % of the controls"},
      {"measurement": "Effect on tube formation", "setting": "[2]; 10 μmol/L", "result": "tube disruption"},
      {"measurement": "Reduction of tube formation", "setting": "[2]; 10 μmol/L", "result": "> 90", "unit": "%"},
      {"measurement": "Capillary tube formation", "setting": "[2]", "result": "inhibited capillary tube formation in a dose dependent manner"},
      {"measurement": "Concentration from which antiangiogenic activity was apparent", "setting": "[2]", "result": "≥ 5", "unit": "µmol/L"},
      {"measurement": "HUVEC cell proliferation", "setting": "HUVEC", "result": "did not influence HUVEC cell proliferation"},
      {"measurement": "Production of prostaglandins in % of the controls", "setting": "[3]", "result": "3.05 ± 1.26 % of the controls"}
    ]},
    {"compound": "Nc1nc(Cl)c(Cc2ccccc2)c(Cl)n1", "note": "[Substance 34]", "values": [
      {"measurement": "Production of nitric oxide in % of the controls", "setting": "[1]", "result": "50.57 ± 9.31 % of the controls"},
      {"measurement": "Cell viability in % of the controls", "setting": "peritoneal cells of mice", "result": "105.92 ± 20.65 % of the controls"},
      {"measurement": "Mutagenicity (reverse mutation)", "setting": "[4]; all strains, all tested concentrations, with and without metabolic activation", "result": "non-mutagenous"},
      {"measurement": "Production of prostaglandins in % of the controls", "setting": "[3]", "result": "3.71 ± 2.00 % of the controls"}
    ]},
    {"compound": "CC(C)c1c(Cl)nc(NC=O)nc1Cl", "note": "[Substance 53]", "values": [
      {"measurement": "Production of nitric oxide in % of the controls", "setting": "[1]", "result": "0.70 ± 0.22 % of the controls"},
      {"measurement": "Cell viability in % of the controls", "setting": "peritoneal cells of mice", "result": "60.02 ± 0.29 % of the controls"},
      {"measurement": "Effect on tube formation", "setting": "[2]; 10 μmol/L", "result": "only limited effect"},
      {"measurement": "Incomplete tube formation", "setting": "[2]; 25 μmol/L", "result": "~46", "unit": "%"},
      {"measurement": "Capillary tube formation", "setting": "[2]", "result": "inhibited capillary tube formation in a dose dependent manner"},
      {"measurement": "HUVEC cell proliferation", "setting": "HUVEC", "result": "did not influence HUVEC cell proliferation"},
      {"measurement": "Production of prostaglandins in % of the controls", "setting": "[3]", "result": "8.57 ± 0.99 % of the controls"}
    ]},
    {"compound": "[N-]=[N+]=[N-]", "note": "[sodium azide, reference compound]", "values": [
      {"measurement": "Number of revertants, positive control for −MA I", "setting": "[4]; arrangement of FIG. 5 (TA 100), without metabolic activation, 1.5 μg", "result": "> 500"}
    ]}
  ]
}
